# *1 amine or outer side, *2 acyl side, *3 side chain or, on linkers, in order; H or OH if unused. Where a SMILES comes first, the peptide text is derived from it. [ ]: non-standard residue; d: D form. The star is where a group is joined. MeBmt = C/C=C/C[C@@H](C)[C@@H](O)[C@H](NC)C(=O)O; X8 = CCN(CC)CCS[C@@H](C(=O)[*:2])N(C)[*:1]; X3 = CC=CCC(C)C(O)C(C(=O)[*:2])N(C)[*:1]; NMeI = CC[CH](C)[CH](NC)C(=O)O; NMeL = CN[CH](CC(C)C)C(=O)O; NMeV = CN[CH](C(=O)O)C(C)C; Et2NCH2CH2 = CCN(CC)CC*; NMeC = CN[CH](CS)C(=O)O; Abu = CC[CH](N)C(=O)O
# Test system: HCV replicon in cell line ET (luc-ubi-neo/ET), Huh7 human hepatoma
# Experiment: HCV subgenomic replicon assay, luciferase end point
# Type: cell-based
# Conditions: HCV subgenomic replicon, cell line ET (luc-ubi-neo/ET) Huh7, luciferase end point; read-out: Antiviral activity EC50
row,Compound,EC50 [nM]
1,CC=CCC(C)C(O)C1C(=O)NC(CC)C(=O)N(C)C(CSCCN(CC)C(C)C)C(=O)N(C)C(CC(C)(C)O)C(=O)NC(C(C)C)C(=O)N(C)C(CC(C)C)C(=O)NC(C)C(=O)NC(C)C(=O)N(C)C(CC(C)C)C(=O)N(C)C(CC(C)C)C(=O)N(C)C(C(C)C)C(=O)N1C (centres unmarked),70
2,CC=CCC(C)C(O)C1C(=O)NC(CC)C(=O)N(C)C(CSCCN(C)CC(C)(C)C)C(=O)N(C)C(CC(C)(C)O)C(=O)NC(C(C)C)C(=O)N(C)C(CC(C)C)C(=O)NC(C)C(=O)NC(C)C(=O)N(C)C(CC(C)C)C(=O)N(C)C(CC(C)C)C(=O)N(C)C(C(C)C)C(=O)N1C (centres unmarked),70
3,C/C=C/C[C@@H](C)[C@@H](O)[C@H]1C(=O)N[C@@H](CC)C(=O)N(C)[C@H](COCCCN(C)C)C(=O)N(C)[C@@H](CC(C)(C)O)C(=O)N[C@@H](C(C)C)C(=O)N(C)[C@@H](CC(C)C)C(=O)N[C@@H](C)C(=O)N[C@H](C)C(=O)N(C)[C@@H](CC(C)C)C(=O)N(C)[C@@H](CC(C)C)C(=O)N(C)[C@@H](C(C)C)C(=O)N1C,260
4,CC=CCC(C)C(O)C1C(=O)NC(CC)C(=O)N(C)C(CSCCCN2CCCCC2)C(=O)N(C)C(CC(C)(C)O)C(=O)NC(C(C)C)C(=O)N(C)C(CC(C)C)C(=O)NC(C)C(=O)NC(C)C(=O)N(C)C(CC(C)C)C(=O)N(C)C(CC(C)C)C(=O)N(C)C(C(C)C)C(=O)N1C (centres unmarked),50
5,"CC=CCC(C)C(O)C1C(=O)NC(CC)C(=O)N(C)C(CSCCN(CC)CC)C(=O)N(C)C(C(C)CC)C(=O)NC(C(C)C)C(=O)N(C)C(CC(C)C)C(=O)NC(C)C(=O)NC(C)C(=O)N(C)C(CC(C)C)C(=O)N(C)C(CC(C)C)C(=O)N(C)C(C(C)C)C(=O)N1C [[(S)-(2-(N,N-Diethylamino)ethylthio)methyl-Sar]-3-[N-MeIle]-4-cyclosporin] (cyclo([X3][Abu][NMeC](Et2NCH2CH2)[NMeI]V[NMeL]AA[NMeL][NMeL][NMeV]); configuration not given here)",100
6,"C/C=C/C[C@@H](C)[C@@H](O)[C@H]1C(=O)N[C@@H](CC)C(=O)N(C)[C@H](CSCCN(C)C)C(=O)N(C)[C@@H](CC(C)(C)O)C(=O)N[C@@H](C(C)C)C(=O)N(C)[C@@H](CC(C)C)C(=O)N[C@@H](C)C(=O)N[C@H](C)C(=O)N(C)[C@@H](CC(C)C)C(=O)N(C)[C@@H](CC(C)C)C(=O)N(C)[C@@H](C(C)C)C(=O)N1C (single isomer, unassigned; isomer b)",130
7,CC=CCC(C)C(O)C1C(=O)NC(CC)C(=O)N(C)C(CSCCCN2CCOCC2)C(=O)N(C)C(CC(C)(C)OC)C(=O)NC(C(C)C)C(=O)N(C)C(CC(C)C)C(=O)NC(C)C(=O)NC(C)C(=O)N(C)C(CC(C)C)C(=O)N(C)C(CC(C)C)C(=O)N(C)C(C(C)C)C(=O)N1C (centres unmarked),100
8,CC=CCC(C)C(O)C1C(=O)NC(CC)C(=O)N(C)C(CSCCN(CC)CC(C)(C)C)C(=O)N(C)C(CC(C)(C)O)C(=O)NC(C(C)C)C(=O)N(C)C(CC(C)C)C(=O)NC(C)C(=O)NC(C)C(=O)N(C)C(CC(C)C)C(=O)N(C)C(CC(C)C)C(=O)N(C)C(C(C)C)C(=O)N1C (centres unmarked),60
9,CC=CCC(C)C(O)C1C(=O)NC(CC)C(=O)N(C)C(COCCN2CCCCC2)C(=O)N(C)C(CC(C)(C)O)C(=O)NC(C(C)C)C(=O)N(C)C(CC(C)C)C(=O)NC(C)C(=O)NC(C)C(=O)N(C)C(CC(C)C)C(=O)N(C)C(CC(C)C)C(=O)N(C)C(C(C)C)C(=O)N1C [[(R)-(2-(N-Piperidinyl)ethoxy)methyl-Sar]-3-[(γ-hydroxy)-N-MeLeu]-4-cyclosporin],140
10,CC=CCC(C)C(O)C1C(=O)NC(CC)C(=O)N(C)C(CSCCN2CCCCC2)C(=O)N(C)C(CC(C)(C)O)C(=O)NC(C(C)C)C(=O)N(C)C(CC(C)C)C(=O)NC(C)C(=O)NC(C)C(=O)N(C)C(CC(C)C)C(=O)N(C)C(CC(C)C)C(=O)N(C)C(C(C)C)C(=O)N1C (centres unmarked),80
11,CC=CCC(C)C(O)C1C(=O)NC(CC)C(=O)N(C)C(CSCCN(C)C(C)C)C(=O)N(C)C(CC(C)(C)O)C(=O)NC(C(C)C)C(=O)N(C)C(CC(C)C)C(=O)NC(C)C(=O)NC(C)C(=O)N(C)C(CC(C)C)C(=O)N(C)C(CC(C)C)C(=O)N(C)C(C(C)C)C(=O)N1C (centres unmarked),100
12,CC=CCC(C)C(O)C1C(=O)NC(CC)C(=O)N(C)C(CSCCN(CC)CC)C(=O)N(C)C(CC(C)(C)OC)C(=O)NC(C(C)C)C(=O)N(C)C(CC(C)C)C(=O)NC(C)C(=O)NC(C)C(=O)N(C)C(CC(C)C)C(=O)N(C)C(CC(C)C)C(=O)N(C)C(C(C)C)C(=O)N1C (centres unmarked),90
13,CC=CCC(C)C(O)C1C(=O)NC(CC)C(=O)N(C)C(COCCN(CC)CC)C(=O)N(C)C(CC(C)(C)O)C(=O)NC(C(C)C)C(=O)N(C)C(CC(C)C)C(=O)NC(C)C(=O)NC(C)C(=O)N(C)C(CC(C)C)C(=O)N(C)C(CC(C)C)C(=O)N(C)C(C(C)C)C(=O)N1C (centres unmarked),120

# Same assay, conditions: Hepatitis C virus, Huh-7, HCV subgenomic replicon, cell line ET (luc-ubi-neo/ET) Huh7, luciferase end point; read-out: Antiviral activity EC50
row,Compound,EC50 [nM]
1,C/C=C/C[C@@H](C)[C@@H](O)[C@H]1C(=O)N[C@@H](CC)C(=O)N(C)[C@H](CSCCNCC(C)(C)C)C(=O)N(C)[C@@H](CC(C)(C)O)C(=O)N[C@@H](C(C)C)C(=O)N(C)[C@@H](CC(C)C)C(=O)N[C@@H](C)C(=O)N[C@H](C)C(=O)N(C)[C@@H](CC(C)C)C(=O)N(C)[C@@H](CC(C)C)C(=O)N(C)[C@@H](C(C)C)C(=O)N1C,60
2,C/C=C/C[C@@H](C)[C@@H](O)[C@H]1C(=O)N[C@@H](CC)C(=O)N(C)[C@H](CSCCNC(C)C)C(=O)N(C)[C@@H](CC(C)(C)O)C(=O)N[C@@H](C(C)C)C(=O)N(C)[C@@H](CC(C)C)C(=O)N[C@@H](C)C(=O)N[C@H](C)C(=O)N(C)[C@@H](CC(C)C)C(=O)N(C)[C@@H](CC(C)C)C(=O)N(C)[C@@H](C(C)C)C(=O)N1C,190

# Same assay, conditions: Hepatitis C virus, Huh-7, Table 14, HCV replicon luciferase; read-out: Antiviral activity EC50
row,Compound,EC50 [nM]
1,C/C=C/C[C@@H](C)[C@@H](O)[C@H]1C(=O)N[C@@H](CC)C(=O)N(C)[C@H](CSCCN2CCCCC2)C(=O)N(C)[C@@H](CC(C)(C)O)C(=O)N[C@@H](C(C)C)C(=O)N(C)[C@@H](CC(C)C)C(=O)N[C@@H](C)C(=O)N[C@H](C)C(=O)N(C)[C@@H](CC(C)C)C(=O)N(C)[C@@H](CC(C)C)C(=O)N(C)[C@@H](C(C)C)C(=O)N1C,40
2,C/C=C/C[C@@H](C)[C@@H](O)[C@H]1C(=O)N[C@@H](CC)C(=O)N(C)[C@H](CSCCCN(C)C)C(=O)N(C)[C@@H](CC(C)(C)O)C(=O)N[C@@H](C(C)C)C(=O)N(C)[C@@H](CC(C)C)C(=O)N[C@@H](C)C(=O)N[C@H](C)C(=O)N(C)[C@@H](CC(C)C)C(=O)N(C)[C@@H](CC(C)C)C(=O)N(C)[C@@H](C(C)C)C(=O)N1C,50
3,C/C=C/C[C@@H](C)[C@@H](O)[C@H]1C(=O)N[C@@H](CC)C(=O)N(C)[C@H](CSCCCN(CC)CC)C(=O)N(C)[C@@H](CC(C)(C)O)C(=O)N[C@@H](C(C)C)C(=O)N(C)[C@@H](CC(C)C)C(=O)N[C@@H](C)C(=O)N[C@H](C)C(=O)N(C)[C@@H](CC(C)C)C(=O)N(C)[C@@H](CC(C)C)C(=O)N(C)[C@@H](C(C)C)C(=O)N1C,30

# Same assay, conditions: Hepatitis C virus, Huh-7, Table 16, HCV replicon luciferase; read-out: Antiviral activity EC50
row,Compound,EC50 [nM]
1,C/C=C/C[C@@H](C)[C@@H](O)[C@H]1C(=O)N[C@@H](CC)C(=O)N(C)[C@H](CSCCNCC(C)(C)C)C(=O)N(C)[C@@H](CC(C)(C)O)C(=O)N[C@@H](C(C)C)C(=O)N(C)[C@@H](CC(C)C)C(=O)N[C@@H](C)C(=O)N[C@H](C)C(=O)N(C)[C@@H](CC(C)C)C(=O)N(C)[C@@H](CC(C)C)C(=O)N(C)[C@@H](C(C)C)C(=O)N1C,50

# Same assay, conditions: Hepatitis C virus, Huh-7, read-out: Antiviral activity EC50, Table 12, HCV replicon luciferase
row,Compound,EC50 [nM]
1,"C/C=C/C[C@@H](C)[C@@H](O)[C@H]1C(=O)N[C@@H](CC)C(=O)N(C)CC(=O)N(C)[C@@H](C(C)C)C(=O)N[C@@H](C(C)C)C(=O)N(C)[C@@H](CC(C)C)C(=O)N[C@@H](C)C(=O)N[C@H](C)C(=O)N(C)[C@@H](CC(C)C)C(=O)N(C)[C@@H](CC(C)C)C(=O)N(C)[C@@H](C(C)C)C(=O)N1C [[N-MeVal]-4-cyclosporin (SDZ 220-384), N-MeVal-4-Cyclosporin, reference compound]",170

# Same assay, conditions: Table 12, HCV replicon luciferase; read-out: Antiviral activity EC50
row,Compound,EC50 [nM]
1,"C/C=C/C[C@@H](C)[C@@H](O)[C@H]1C(=O)N[C@@H](CC)C(=O)N(C)[C@@H](SCCN(CC)CC)C(=O)N(C)[C@@H](C(C)C)C(=O)N[C@@H](C(C)C)C(=O)N(C)[C@@H](CC(C)C)C(=O)N[C@@H](C)C(=O)N[C@H](C)C(=O)N(C)[C@@H](CC(C)C)C(=O)N(C)[C@@H](CC(C)C)C(=O)N(C)[C@@H](C(C)C)C(=O)N1C [(S)-2-(N,N-Diethylamino)ethylthio-Sar]-3-[N-MeVal]-4-cyclosporin] (cyclo(A[dA][NMeL][NMeL][NMeV][MeBmt][Abu][X8][NMeV]V[NMeL]))",40

# Same assay, conditions: Table 16, HCV replicon luciferase; read-out: Antiviral activity EC50
row,Compound,EC50 [nM]
1,CC=CCC(C)C(O)C1C(=O)NC(CC)C(=O)N(C)C(CSCCCCN(CC)CC)C(=O)N(C)C(CC(C)(C)O)C(=O)NC(C(C)C)C(=O)N(C)C(CC(C)C)C(=O)NC(C)C(=O)NC(C)C(=O)N(C)C(CC(C)C)C(=O)N(C)C(CC(C)C)C(=O)N(C)C(C(C)C)C(=O)N1C (centres unmarked),70
2,C/C=C/C[C@@H](C)[C@@H](O)[C@H]1C(=O)N[C@@H](CC)C(=O)N(C)[C@H](CSCCCCO)C(=O)N(C)[C@@H](CC(C)(C)O)C(=O)N[C@@H](C(C)C)C(=O)N(C)[C@@H](CC(C)C)C(=O)N[C@@H](C)C(=O)N[C@H](C)C(=O)N(C)[C@@H](CC(C)C)C(=O)N(C)[C@@H](CC(C)C)C(=O)N(C)[C@@H](C(C)C)C(=O)N1C [[(S)-(4-Hydroxylbutylthio)methyl-Sar]-3-[(γ-hydroxy)-N-MeLeu]-4-cyclosporin],20
3,CC=CCC(C)C(O)C1C(=O)NC(CC)C(=O)N(C)C(CSCCCCNCC(C)(C)C)C(=O)N(C)C(CC(C)(C)O)C(=O)NC(C(C)C)C(=O)N(C)C(CC(C)C)C(=O)NC(C)C(=O)NC(C)C(=O)N(C)C(CC(C)C)C(=O)N(C)C(CC(C)C)C(=O)N(C)C(C(C)C)C(=O)N1C (centres unmarked),40
4,CC=CCC(C)C(O)C1C(=O)NC(CC)C(=O)N(C)C(CSCCCCOCCN(CC)CC)C(=O)N(C)C(CC(C)(C)O)C(=O)NC(C(C)C)C(=O)N(C)C(CC(C)C)C(=O)NC(C)C(=O)NC(C)C(=O)N(C)C(CC(C)C)C(=O)N(C)C(CC(C)C)C(=O)N(C)C(C(C)C)C(=O)N1C (centres unmarked),50
5,C/C=C/C[C@@H](C)[C@@H](O)[C@H]1C(=O)N[C@@H](CC)C(=O)N(C)[C@H](CSCCN2CCN(CC)CC2)C(=O)N(C)[C@@H](CC(C)(C)O)C(=O)N[C@@H](C(C)C)C(=O)N(C)[C@@H](CC(C)C)C(=O)N[C@@H](C)C(=O)N[C@H](C)C(=O)N(C)[C@@H](CC(C)C)C(=O)N(C)[C@@H](CC(C)C)C(=O)N(C)[C@@H](C(C)C)C(=O)N1C,60
